Data reported in patent publication US12655116B2, “Substituted isophthalic acid diamides” (Bayer Aktiengesellschaft, priority 2020, dated 2026).

Columns and labels:
[1] = test system: VIOTR; experiment: Pre-emergence herbicidal action against VIOTR; type: in vivo, Viola tricolor; details: Viola tricolor, 504 h; for pest or weed control at 20 g/ha: dosage 20 g/ha; for pest or weed control at 80 g/ha: dosage 80 g/ha
Summary of the method: (§1)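 Visual rating at 3 weeks vs untreated pots; 0–100% scale, 100% = plants died. Treatment: aqueous WP/EC spray onto covering soil, 600–800 l/ha, 0.2% wetter, seeds in sandy loam.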

[2] = test system: AVEFA; experiment: Pre-emergence herbicidal action against AVEFA; type: in vivo, Avena fatua; details: Avena fatua, 504 h, pre-emergence
Summary of the method: as §1

[3] = test system: SETVI; experiment: Pre-emergence herbicidal action against SETVI; type: in vivo, Setaria viridis; details: Setaria viridis, 504 h; for pest or weed control at 80 g/ha: dosage 80 g/ha
Summary of the method: as §1

[4] = test system: ABUTH; experiment: Post-emergence herbicidal action against ABUTH; type: in vivo, Abutilon theophrasti; details: Abutilon theophrasti, 504 h, visual assessment about 3 weeks after treatment vs untreated controls; for pest or weed control at 20 g/ha: dosage 20 g/ha
Summary of the method: (§2)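 Weeds in sandy loam soil received a post-emergence spray at the one-leaf stage. Compounds were applied as WP or EC in water, 600 to 800 l/ha, with 0.2% wetting agent. Activity in % was judged visually after roughly 3 weeks against untreated plants.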

[5] = test system: VIOTR; experiment: Post-emergence herbicidal action against VIOTR; type: in vivo, Viola tricolor; details: Viola tricolor, 504 h
Summary of the method: as §2

[6] = test system: AMARE; experiment: Post-emergence herbicidal action against AMARE; type: in vivo, Amaranthus retroflexus; details: Amaranthus retroflexus, 504 h, 20 g/ha, visual assessment about 3 weeks after treatment, 100% = plants have died, 0% = like control plants
Summary of the method: as §2

[7] = test system: LOLRI; experiment: Pre-emergence herbicidal action against LOLRI; type: in vivo, Lolium rigidum; details: Lolium rigidum, 504 h, 80 g/ha
From the text: Seeds of monocotyledonous and dicotyledonous weed plants and crop plants are laid out in sandy loam soil in wood-fiber pots and covered with soil. The compounds of the invention, formulated in the form of wettable powders (WP) or as emulsion concentrates (EC), are then applied to the surface of the covering soil in the form of an aqueous suspension or emulsion at a water application rate equivalent to 600 to 800 l/ha, with addition of 0.2% wetting agent. After the treatment, the pots are placed in a greenhouse and kept under good growth conditions for the trial plants. The damage to the test plants is scored visually after a test period of 3 weeks by comparison with untreated controls (herbicidal activity in percent (%): 100% activity=the plants have died, 0% activity=like control plants). […] The tables below illustrate, in an illustrative manner, the post-emergence herbicidal action of the compounds of the invention, the herbicidal activity being stated in percent.

[8] = test system: ALOMY; experiment: Pre-emergence herbicidal action against ALOMY; type: in vivo, Alopecurus myosuroides; details: Alopecurus myosuroides, 504 h, pre-emergence; for pest or weed control at 80 g/ha: scored visually after 3 weeks vs untreated controls (100% = plants have died, 0% = like control plants); for pest or weed control at 20 g/ha: scored visually after 3 weeks, 100% = plants have died, 0% = like control plants
Summary of the method: as §1

[9] = test system: ABUTH; experiment: Pre-emergence herbicidal action against ABUTH; type: in vivo, Abutilon theophrasti; details: Abutilon theophrasti, 504 h; for pest or weed control at 80 g/ha: scored visually after 3 weeks vs untreated controls (100% = plants have died, 0% = like control plants); for pest or weed control at 20 g/ha: dosage 20 g/ha, scored visually after 3 weeks vs untreated controls, 100% = plants have died, 0% = like control plants, read-out: Pre-emergence action against ABUTH (herbicidal activity in percent)
Summary of the method: as §1

[10] = test system: SETVI; experiment: Post-emergence herbicidal action against SETVI; type: in vivo, Setaria viridis; details: Setaria viridis, 504 h; for pest or weed control at 5 g/ha: dosage 5 g/ha; for pest or weed control at 20 g/ha: dosage 20 g/ha
Summary of the method: as §2

[11] = test system: AMARE; experiment: Pre-emergence herbicidal action against AMARE; type: in vivo, Amaranthus retroflexus; details: Amaranthus retroflexus, 504 h, scored visually after 3 weeks vs untreated controls, 100% = plants have died, 0% = like control plants
Summary of the method: as §1

[12] = test system: ECHCG; experiment: Post-emergence herbicidal action against ECHCG; type: in vivo, Echinochloa crus-galli; details: Echinochloa crus-galli, 504 h, dosage 20 g/ha
Summary of the method: as §2

[13] = test system: PHBPU; experiment: Post-emergence herbicidal action against PHBPU; type: in vivo, Pharbitis purpurea; details: Ipomoea purpurea, 504 h; for pest or weed control at 20 g/ha: dosage 20 g/ha
Summary of the method: as §2

[14] = test system: ALOMY; experiment: Post-emergence herbicidal action against ALOMY; type: in vivo, Alopecurus myosuroides; details: Alopecurus myosuroides, 504 h, visual assessment about 3 weeks after treatment vs untreated controls; for pest or weed control at 20 g/ha: dosage 20 g/ha
Summary of the method: as §2

[15] = test system: MATIN; experiment: Post-emergence herbicidal action against MATIN; type: in vivo, Matricaria inodora; details: Tripleurospermum inodorum, 504 h; for pest or weed control at 20 g/ha: dosage 20 g/ha
Summary of the method: as §2

[16] = test system: ECHCG; experiment: Pre-emergence herbicidal action against ECHCG; type: in vivo, Echinochloa crus-galli; details: Echinochloa crus-galli, 504 h, 80 g/ha
Summary of the method: as §1

[17] = test system: MATIN; experiment: Pre-emergence herbicidal action against MATIN; type: in vivo, Matricaria inodora; details: Tripleurospermum inodorum, 504 h; for pest or weed control at 20 g/ha: dosage 20 g/ha; for pest or weed control at 80 g/ha: dosage 80 g/ha
Summary of the method: as §1

[18] = test system: VERPE; experiment: Post-emergence herbicidal action against VERPE; type: in vivo, Veronica persica; details: Veronica persica, 504 h, 20 g/ha
Summary of the method: as §2

[19] = test system: VERPE; experiment: Pre-emergence herbicidal action against VERPE; type: in vivo, Veronica persica; details: Veronica persica, 504 h, dosage 80 g/ha
Summary of the method: as §1

`CNC(=O)c1c(I)ccc(C(=O)Nc2nnnn2C)c1Cl` [Example 1-195] showed a pest or weed control at 20 g/ha [1] of 100%, a pest or weed control at 80 g/ha [1] of 100% and a pest or weed control at 80 g/ha [2] of 90%. It also gave a pest or weed control at 20 g/ha ([2]; 20 g/ha, scored visually after 3 weeks, 100% = plants have died, 0% = like control plants) of 80%, a pest or weed control at 20 g/ha ([3]; dosage 20 g/ha) of 90% and a pest or weed control at 80 g/ha [3] of 100%. It also gave a pest or weed control at 20 g/ha [4] of 80%, a pest or weed control at 5 g/ha [5] of 90% and a pest or weed control at 20 g/ha [5] of 100%. For the same compound, the pest or weed control at 20 g/ha [6] was 100%, the pest or weed control at 80 g/ha [7] was 80% and the pest or weed control at 80 g/ha [8] was 90%. For the same compound, the pest or weed control at 20 g/ha [8] was 90%, the pest or weed control at 80 g/ha [9] was 100% and the pest or weed control at 20 g/ha [9] was 90%. For the same compound, the pest or weed control at 5 g/ha [10] was 100%, the pest or weed control at 20 g/ha [10] was 100% and the pest or weed control at 20 g/ha ([11]; 20 g/ha) was 90%. The pest or weed control at 80 g/ha [11] was 100%, the pest or weed control at 20 g/ha [12] was 80% and the pest or weed control at 5 g/ha ([13]; dosage 5 g/ha) was 80%. It also gave a pest or weed control at 20 g/ha [13] of 80%, a pest or weed control at 5 g/ha ([14]; dosage 5 g/ha) of 90% and a pest or weed control at 20 g/ha [14] of 100%. It also gave a pest or weed control at 20 g/ha [15] of 80%, a pest or weed control at 80 g/ha [16] of 100% and a pest or weed control at 20 g/ha [17] of 90%. For the same compound, the pest or weed control at 80 g/ha [17] was 100% and the pest or weed control at 20 g/ha [18] was 80%.
For `CSc1c(C(=O)Nc2nnnn2C)ccc(C(F)(F)F)c1C(=O)NC1CC1` [Example 1-83], the pest or weed control at 20 g/ha [1] was 90%, the pest or weed control at 80 g/ha [1] was 100% and the pest or weed control at 80 g/ha [2] was 80%. For the same compound, the pest or weed control at 80 g/ha [3] was 100%, the pest or weed control at 5 g/ha ([4]; dosage 5 g/ha) was 90% and the pest or weed control at 20 g/ha [4] was 90%. For the same compound, the pest or weed control at 5 g/ha [5] was 90%, the pest or weed control at 20 g/ha [5] was 90% and the pest or weed control at 20 g/ha [6] was 100%. For the same compound, the pest or weed control at 80 g/ha [19] was 80%, the pest or weed control at 80 g/ha [7] was 80% and the pest or weed control at 80 g/ha [8] was 100%. It also gave a pest or weed control at 20 g/ha [8] of 80%, a pest or weed control at 80 g/ha [9] of 100% and a pest or weed control at 20 g/ha [9] of 100%. For the same compound, the pest or weed control at 5 g/ha [10] was 80%, the pest or weed control at 20 g/ha [10] was 100% and the pest or weed control at 80 g/ha [11] was 100%. For the same compound, the pest or weed control at 20 g/ha [12] was 90%, the pest or weed control at 20 g/ha [13] was 90% and the pest or weed control at 20 g/ha [14] was 100%. For the same compound, the pest or weed control at 5 g/ha ([15]; dosage 5 g/ha) was 80%, the pest or weed control at 20 g/ha [15] was 90% and the pest or weed control at 80 g/ha [16] was 90%. For the same compound, the pest or weed control at 20 g/ha [17] was 90%, the pest or weed control at 80 g/ha [17] was 100% and the pest or weed control at 20 g/ha [18] was 90%.
